Experimental data: patent US11779569B2, “Methods and compositions for treating hyperhidrosis” (THERAVIDA, INC., priority 2016, dated 2023)

Assays:
[1] = Jacobs 1996; Cheshire and Fealey 2008; Salagen product insert; cited from earlier work
[2] = system: subjects with primary focal hyperhidrosis; test: Hyperhidrosis Disease Severity Scale (HDSS), crossover clinical study; assay type: in vivo, human; details: BID by mouth, 21-day treatment period; 1 point drop=50% reduction in sweating, 2 points=80% reduction
Description: (§1) The clinical study was a randomized, double blind, placebo-controlled, crossover study of approximately 18 subjects. Following qualification, subjects were randomized to one of 6 groups/sequences during which they received each of the three study treatments in sequential treatment periods. Each 21-day double-blind study treatment period was preceded by an at least 7-day washout period. Subsequent study treatment assignments were via the sequential three-way crossover design prescribed in that group. After completing the final study treatment period or early study treatment discontinuation, all subjects completed an end of study visit (approximately 14 days after the last study treatment administration. FIG. 5 illustrates a scheme of the clinical study design.
Subjects were randomized to 1 of 6 groups/sequences of study treatment administration. […]
(§2) Efficacy and safety analyses were conducted on study treatment (THVD-102 [7.5/7.5], oxybutynin or placebo). […] There was a statistically significant effect in each of three measures of efficacy: • 1) Hyperhidrosis Disease Severity Scale (p=0.03-0.05) • THVD-102 [7.5/7.5]=1.06±1.11; Oxybutynin=1.33±1.03; placebo=0.5±0.62 1 point drop=50% reduction in sweating; 2 points=80% reduction • 2) Hyperhidrosis Visual Analog Scale (p=0.01) • 3) Hyperhidrosis Visual Quantification Scale (p=0.005-0.07)

[3] = system: subjects with primary focal hyperhidrosis; test: Dry Mouth Visual Analog Scale (DMVAS), crossover clinical study; assay type: in vivo, human; details: 100 mm scale, 100 = worst; PP; n 18
Description: as §1, with “After completing the final study treatment period or early study treatment discontinuation, all subjects completed an end of study visit (approximately 14 days after the last study treatment administration. FIG. 5 illustrates a scheme of the clinical study design.” left out
The DMVAS will be used to quantify the severity of dry mouth experienced by subjects during this clinical trial. […] The score was determined by measuring the distance from the left anchor to where the line that the subject drew bisected the (100 mm) scale. The distance was measured and recorded in millimeters (mm). […]
as §2

[4] = system: subjects with primary focal hyperhidrosis; test: Dry Mouth Questions (Dry Mouth Severity/Incidence Questionnaire), crossover clinical study; assay type: in vivo, human; details: PP, n 18
Description: as §1
The active control of oxybutynin 7.5 mg is the comparator for THVD-102 [7.5/7.5] for the anti-muscarinic induced dry mouth symptom incidence and severity.
Subjects were randomized to 1 of 6 groups/sequences of study treatment administration. Each sequence included sequential crossover assignment to a 21-day treatment period of: • oxybutynin 7.5 mg BID alone by mouth; • THVD-102 [7.5/7.5] (oxybutynin 7.5 mg in combination with pilocarpine 7.5 mg) BID by mouth; and • placebo BID by mouth.
Dry Mouth Questions (Dry Mouth Severity/Incidence Questionnaire)
At the end of the end of each treatment period, investigational site staff questioned subjects regarding the incidence of dry mouth. This assessment occurred after the subject had completed the DMVAS and DTVAS and included questions relating to the incidence and severity of dry mouth symptoms and remedial actions taken. The investigator was instructed to query subjects in a non-judgmental, non-leading manner using the following script (© 2012, Thomas Tremblay and Robin Allgren) to elicit the incidence of dry mouth: • Have you had any dry mouth since starting (the most recent) study treatment? (at completion of Treatment Periods 1, 2, and 3)
as §2, with “placebo). Continuous data were summarized by using descriptive statistics (mean, SD, median, min, max) and categorical data were summarized in frequency tables. Using Day 1 of the first and each subsequent Treatment Period as baselines for measuring treatment effect, a Wilcoxon signed-rank test were performed.” for “placebo).”

Structure (SMILES)	effect on sweating [1]	Hyperhidrosis Disease Severity Scale [2]	Dry mouth Visual Analog Scale, Change D0-D21 [3]	Moderate/Severe dry mouth, number of subjects [4]	Moderate/Severe dry mouth, percent of subjects [4]	None/Mild dry mouth, number of subjects [4]	None/Mild dry mouth, percent of subjects [4]
CC[C@@H]1C(=O)OC[C@@H]1Cc1cncn1C [pilocarpine, (3S,4R)-3-Ethyl-4-((1-methyl-1H-imidazol-5-yl)methyl)dihydrofuran-2(3H)-one]	known to cause an increase in sweating	–	–	–	–	–	–
CCN(CC)CC#CCOC(=O)C(O)(c1ccccc1)C1CCCCC1 (stereo not shown) [Oxybutynin, 4-Diethylaminobut-2-ynyl 2-cyclohexyl-2-hydroxy-2-phenylethanoate]	–	1.33±1.03	43.9 ± 27.9 mm	13	72%	5	27%
